The values that follow come from publication PMC4869729 (Chemical Science, 2015).

For test [1], the system named is TrxR in human ovarian A2780 cancer cells. The settings on record: 10 μM; cited from earlier work.
Another test concerns MAPKAPK-3. The experiment in a line: Immunoblotting of MAPKAPK-3 in Auranofin treated Caki-1 cells. It counts as cell-based, human. The settings on record: Caki-1, Western blot (Fig. S46). In general terms: A western blot detects proteins with antibodies after separation by electrophoresis.
Test [2] relates to TrxR in human breast MCF-7 cancer cells. The settings on record: MCF-7 cells, 4 μM; cited from earlier work.
The next test has as its system thioredoxin reductase. In words: Thioredoxin reductase activity in treated Caki-1 cells. The class given is cell-based, human.
Test [3] deals with human renal Caki-1 cancer cell lines. The experiment in a line: XTT cytotoxicity assay, Caki-1. It counts as cell-based. The settings on record: read-out: IC50 Caki-1, 72 h incubation. In general terms: Formazan colour is commonly taken as a measure of viable cells.
Test [4] deals with non-tumorigenic human embryonic kidney cell lines HEK-293T. The experiment in a line: XTT cytotoxicity assay, HEK-293T. It counts as cell-based. The note with it: read-out: IC50 HEK-293T, 72 h incubation.
The test system of the next test is plasmid (pBR322) DNA. In words: Electrophoresis mobility shift assay. The note with it: pBR322, metal/DNAbp ratios 0.25-2.0, 37 °C, 20 h. It counts as binding.
For test [5], the system named is human renal proximal tubular cells (RPTC). The experiment in a line: XTT cytotoxicity assay, RPTC. It counts as cell-based. The note with it: read-out: IC50 RPTC, 72 h incubation.

On to `CC(=O)OC[C@H]1O[C@@H]([S-])[C@H](OC(C)=O)[C@@H](OC(C)=O)[C@@H]1OC(C)=O.CCP(CC)CC.[Au+]` [Auranofin], for which the “inhibition of total TrxR activity” value in test [1] is 30%; in test [2], 18%. The “expression of MAPKAPK-3” value with MAPKAPK-3 was “failed to down-regulate MAKPAPK-3”. Besides, in the test with thioredoxin reductase (5 μM, 5 hour incubation), the “inhibition of thioredoxin reductase activity” value is listed as 74.1%. In addition, the IC50 (in general, the concentration that gives 50% inhibition) in the test with thioredoxin reductase (read-out: IC50 thioredoxin reductase, after 12 hours) amounted to 0.61 µM.
Take `N.N.[Cl][Pt][Cl]` [Cisplatin]: the IC50 is 29 ± 4.11 µM in test [3] and 3.27 ± 0.13 µM in test [4]. Moreover, in the test on plasmid (pBR322) DNA, the “effect on electrophoretic mobility of plasmid forms” value is “decreased mobility of the CCC form and increased mobility of the OC form”.
In the case of `COc1ccc(C[C]2([Ti+2][C]3(Cc4ccc(OC)cc4)C=CC=C3)C=CC=C2)cc1.[Cl-].[Cl-]` [Titanocene Y], in test [3], the IC50 came out at 29.4 ± 4.18 µM.
As for [Au(Hmba)(PPh3)] [compound 4], the IC50 amounted to 2.76 ± 0.35 µM in test [3], 1.11 ± 0.65 µM in test [4] and 3.87 ± 0.15 µM in test [5]. Also, in the test with plasmid (pBR322) DNA, the “effect on electrophoretic mobility of plasmid forms” value was “did not affect the mobility of the faster-running supercoiled form”.
